This is an account of results in ChEMBL document CHEMBL6109034, “Discovery of novel tetracyclic quinazolines as multi-KRASinhibitors for the treatment of solid tumors” (Bioorg Med Chem Lett, 2025).

The test system of one test is ASPC1. The test is described as follows: Antiproliferative activity against human ASPC1 cells harbouring KRAS G12D mutant assessed as reduction in cell viability incubated for 72 hrs. It is filed as functional, cell-based.
For the next test, the system named is SW-620. The test is described as follows: Antiproliferative activity against human SW620 cells harbouring KRAS G12V mutant assessed as inhibition of cell growth incubated for 72 hrs by Luminescence based assay. As to conditions: SW-620, 72 h. It counts as functional.
In test [1] the target is T1, GTPase KRas (Homo sapiens, UniProt P01116, G12D). The experiment in a line: Inhibition of KRas G12D mutant in human SW620 cells assessed as inhibition of ERK phosphorylation at Thr202/Tyr204 residues incubated for 3 hrs by Western blot analysis. It is filed as cell-based.
Test [2] deals with T1, GTPase KRas. The experiment in a line: Inhibition of KRas G12D mutant in human ASPC1 cells assessed as inhibition of ERK phosphorylation at Thr202/Tyr204 residues incubated for 3 hrs by Western blot analysis. It counts as cell-based.
The subject of the next test is HT-29. The experiment in a line: Antiproliferative activity against human HT-29 cells harbouring wild-type KRAS assessed as cell growth inhibition by CellTiter-Glo assay. It counts as functional, cell-based.
Test [3] concerns GTPase KRas (Homo sapiens), P01116 [G12D]. The experiment in a line: Inhibition of KRas G12D mutant in human ASPC1 cells assessed as assessed as downregulation of DUSP4 at 0.05 to 300 nM incubated for 3 hrs by Western blot analysis. It is filed as cell-based. As to conditions: dose 0.05-300 nM.

Active and inactive are the calls of the source. The calls are words filed in the database; no cut-off is given here.

Take `N#Cc1c(N)sc2c(F)ccc(-c3c(Cl)c4c5c(nc(OC[C@@]67CCCN6C[C@H](F)C7)nc5c3F)N3CCCCC[C@@H]3CO4)c12`: the IC50 with ASPC1 (Homo sapiens, ASPC1, 72 h) stood at 3250 nM; with SW-620 it was 347 nM.
For `Nc1nc2c(-c3c(Cl)c4c5c(nc(OC[C@@]67CCCN6C[C@H](F)C7)nc5c3F)N3CCCCCC3CO4)ccc(F)c2s1` (stereo not given in full), in that order: 1150 nM and 151 nM.
For `Nc1nc2c(-c3c(Cl)c4c5c(nc(OC[C@@]67CCCN6C[C@H](F)C7)nc5c3F)N3CCCOC[C@H]3CO4)ccc(F)c2s1` the same measures were 1920 nM and 22.6 nM.
For `Nc1nc2c(-c3c(Cl)cc4c(N5CCCOCC5)nc(OC[C@@]56CCCN5C[C@H](F)C6)nc4c3F)ccc(F)c2s1` the same measures were 8240 nM and 208 nM.
With `N#Cc1c(N)sc2c(F)ccc(-c3c(Cl)c4c5c(nc(OC[C@@]67CCCN6C[C@H](F)C7)nc5c3F)N3CCCCC[C@H]3CO4)c12`, the concentration for half-maximal inhibition (IC50) came to 354 nM in the test with ASPC1 (Homo sapiens, ASPC1, 72 h) and 2.6 nM in the test with SW-620.
Regarding `N#Cc1c(N)sc2c(F)ccc(-c3c(Cl)c4c5c(nc(OC[C@@]67CCCN6C[C@H](F)C7)nc5c3F)N3CCCOC[C@H]3CO4)c12` (single isomer, unassigned; atropisomer 1), in the test on ASPC1 (aspc1), the IC50 was determined as 8780 nM.
Still for that read-out and setting: then `N#Cc1c(N)sc2c(F)ccc(-c3c(Cl)c4c5c(nc(OC[C@@]67CCCN6C[C@H](F)C7)nc5c3F)N3CCCCCC3CO4)c12` (single isomer, unassigned; atropisomer 1), with 4000 nM.
For `N#Cc1c(N)sc2c(F)ccc(-c3c(Cl)c4c5c(nc(OC[C@@]67CCCN6C[C@H](F)C7)nc5c3F)N3CCCOC[C@H]3CO4)c12` (single isomer, unassigned; atropisomer 2) [listing 1 of 2 here], the half-maximal inhibitory concentration (IC50) turned out to be 378 nM in the test with ASPC1 (aspc1); 1 nM at GTPase KRas [1]; 0.6 nM at GTPase KRas [2]; 0.6 nM with SW-620; 3230 nM in the test on HT-29.
For `N#Cc1c(N)sc2c(F)ccc(-c3c(Cl)c4c5c(nc(OC[C@@]67CCCN6C[C@H](F)C7)nc5c3F)N3CCCCCC3CO4)c12` (single isomer, unassigned; atropisomer 2), the IC50 in the test on ASPC1 (aspc1) was found to be 713 nM; in the test with SW-620, 4.4 nM.
Turning to `N#Cc1c(N)sc2c(F)ccc(-c3c(Cl)c4c5c(nc(OC[C@@]67CCCN6C[C@H](F)C7)nc5c3F)N3CCCOC[C@H]3CO4)c12` (single isomer, unassigned; atropisomer 2) [listing 2 of 2 here], the outcome in test [3] was Active.
